Target: T1, human Drp1 isoform 3 (Homo sapiens, UniProt O00429)
T1 construct: His tag; made in house; host or cells: E. coli Rosetta (DE3), pET21b vector
Experiment: Drp1 GTPase activity, colorimetric malachite green assay
Format: biochemical
Method: The GTPase activity of Drp1, which is required for the latter to mediate mitochondrial fission, was examined using the colorimetric GTPase assay kit (Innova Biosciences, Cambridge, UK) according to the manufacturer’s instructions. Compounds were diluted in DMSO (all with a final concentration of 0.1% DMSO). Recombinant human Drp1 protein isoform-3 (final concentration 0.25 ng/µL) was diluted in assay buffer containing 50 mM Tris HCl (pH 7.5) and 2.5 mM MgCl2, followed by incubation with compounds for 15 min at 37 °C in a 96 well plate. 0.5 mM GTP, diluted in assay buffer, was then added into the mixture followed by incubation at 37 °C for 30 min.
Upon binding to Drp1, GTP is hydrolysed into GDP and free phosphate (Pi)[24]. Therefore, the degree of GTPase inhibition was assessed by measuring the concentration of Pi released into the assay buffer, which is detected by a malachite green-based dye. The intensity of Pi-dye complex was assessed by measuring the light absorbance at 635 nm wavelength using a microplate reader (BenchMark Plus, MS, USA). Absorbance of each experimental group was normalised to the vehicle control (DMSO).

T1 sequence (O00429 1-699 isoform O00429-4): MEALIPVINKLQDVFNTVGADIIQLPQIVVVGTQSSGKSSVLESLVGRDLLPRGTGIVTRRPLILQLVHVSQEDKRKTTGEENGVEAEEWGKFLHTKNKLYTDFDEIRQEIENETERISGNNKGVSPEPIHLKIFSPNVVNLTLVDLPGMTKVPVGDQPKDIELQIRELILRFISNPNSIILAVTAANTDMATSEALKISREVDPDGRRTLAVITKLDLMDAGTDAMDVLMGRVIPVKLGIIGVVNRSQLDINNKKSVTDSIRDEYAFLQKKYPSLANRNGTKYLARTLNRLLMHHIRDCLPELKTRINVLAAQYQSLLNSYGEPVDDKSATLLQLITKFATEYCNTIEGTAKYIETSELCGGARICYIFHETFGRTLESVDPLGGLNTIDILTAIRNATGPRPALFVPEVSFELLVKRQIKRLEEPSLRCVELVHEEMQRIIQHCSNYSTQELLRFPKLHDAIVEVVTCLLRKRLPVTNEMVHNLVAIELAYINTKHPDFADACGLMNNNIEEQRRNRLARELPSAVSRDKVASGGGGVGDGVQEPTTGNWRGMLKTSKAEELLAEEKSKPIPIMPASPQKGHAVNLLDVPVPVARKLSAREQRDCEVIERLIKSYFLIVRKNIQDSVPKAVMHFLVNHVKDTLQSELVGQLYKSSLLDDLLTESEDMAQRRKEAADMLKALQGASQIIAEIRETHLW

In the case of Cc1nc[nH]c1CN1C[C@@H]2CC[C@H](C1)N(Cc1ccc(-c3cc[nH]n3)o1)C2 [DRP1i27], the “inhibition of GTPase activity of human Drp1” value (5 µM) is reported as “statistically significant reduction” and the “inhibition of the conversion of GTP to GDP” value (5–50 µM) is reported as “trend of inhibition”.
